According to ChEMBL document CHEMBL4706629, “New derivatives of 4'-phenyl-2,2':6',2″-terpyridine as promising anticancer agents” (Eur J Med Chem, 2021):
Active and inactive are the calls of the source. No cut-off for these calls is given here.

Columns and labels:
MCF7 [1] = test: Cytotoxicity against human MCF7 cells assessed as reduction in cell viability measured after 72 hrs by MTS assay; type: functional, cell-based; conditions: MCF7, 72 h
PANC-1 [2] = test: Cytotoxicity against human PANC-1 cells assessed as reduction in cell viability measured after 72 hrs by MTS assay; type: functional, cell-based; conditions: PANC-1, 72 h
U-251 = test: Cytotoxicity against human U-251 cells assessed as reduction in cell viability measured after 72 hrs by MTS assay; type: functional, cell-based; conditions: U-251, 72 h
NHDF = test: Cytotoxicity against NHDF cells assessed as reduction in cell viability measured after 72 hrs by MTS assay; type: cell-based; conditions: Homo sapiens
PANC-1 [3] = test: Cell cycle arrest in human PANC-1 cells assessed as accumulation at G0/G1-phase at 2.5 uM measured after 24 hrs by muse cell analyser (reference value: 48.28 to 48.7%); type: functional
PANC-1 [4] = test: Cell cycle arrest in human PANC-1 cells assessed as accumulation at S-phase at 2.5 uM measured after 24 hrs by muse cell analyser (reference value: 14.3 to 14.9%); type: functional
PANC-1 [5] = test: Cell cycle arrest in human PANC-1 cells assessed as accumulation at G2/M-phase at 2.5 uM measured after 24 hrs by muse cell analyser (reference value: 36.3 to 36.88%); type: functional
PANC-1 [6] = test: Cell cycle arrest in human PANC-1 cells assessed as accumulation at G0/G1-phase at 5 uM measured after 24 hrs by muse cell analyser (reference value: 48.28 to 48.7%); type: functional
PANC-1 [7] = test: Cell cycle arrest in human PANC-1 cells assessed as accumulation at S-phase at 5 uM measured after 24 hrs by muse cell analyser (reference value: 14.3 to 14.9%); type: functional
PANC-1 [8] = test: Cell cycle arrest in human PANC-1 cells assessed as accumulation at G2/M-phase at 5 uM measured after 24 hrs by muse cell analyser (reference value: 36.3 to 36.88%); type: functional
PANC-1 [9] = test: Cell cycle arrest in human PANC-1 cells assessed as accumulation at G0/G1-phase at 7.5 uM measured after 24 hrs by muse cell analyser (reference value: 48.28 to 48.7%); type: functional
PANC-1 [10] = test: Cell cycle arrest in human PANC-1 cells assessed as accumulation at S-phase at 7.5 uM measured after 24 hrs by muse cell analyser (reference value: 14.3 to 14.9%); type: functional
PANC-1 [11] = test: Cell cycle arrest in human PANC-1 cells assessed as accumulation at G2/M-phase at 7.5 uM measured after 24 hrs by muse cell analyser (reference value: 36.3 to 36.88%); type: functional
MCF7 [12] = test: Cell cycle arrest in human MCF7 cells assessed as accumulation at S-phase at 5 uM measured after 24 hrs by muse cell analyser (reference value: 9.9 to 11.66%); type: functional
MCF7 [13] = test: Cell cycle arrest in human MCF7 cells assessed as accumulation at S-phase at 7.5 uM measured after 24 hrs by muse cell analyser (reference value: 9.9 to 11.66%); type: functional
MCF7 [14] = test: Cell cycle arrest in human MCF7 cells assessed as accumulation at G2/M-phase at 7.5 uM measured after 24 hrs by muse cell analyser (reference value: 30.92 to 33.6%); type: functional
PANC-1 [15] = test: Induction of apoptosis in human PANC-1 cells measured after 48 hrs by Annexin V and dead cell kit analysis; type: functional, cell-based; conditions: dose 5-7.5 µM
PANC-1 [16] = test: Induction of apoptosis in human PANC-1 cells assessed as viable cells at 5 uM measured after 48 hrs by Annexin V and dead cell kit analysis (reference value: 85.6%); type: functional; conditions: read-out: Activity
PANC-1 [17] = test: Induction of apoptosis in human PANC-1 cells assessed as early apoptotic cells at 7.5 uM measured after 48 hrs by Annexin V and dead cell kit analysis (reference value: 10.95%); type: functional
PANC-1 [18] = test: Induction of apoptosis in human PANC-1 cells assessed as late apoptotic cells at 7.5 uM measured after 48 hrs by Annexin V and dead cell kit analysis (reference value: 2.4%); type: functional
MCF7 [19] = test: Induction of apoptosis in human MCF7 cells assessed as viable cells at 5 uM measured after 48 hrs by Annexin V and dead cell kit analysis (reference value: 97.4%); type: functional; conditions: read-out: Activity
MCF7 [20] = test: Induction of apoptosis in human MCF7 cells assessed as early apoptotic cells at 5 uM measured after 48 hrs by Annexin V and dead cell kit analysis (reference value: 0.65%); type: functional
MCF7 [21] = test: Induction of apoptosis in human MCF7 cells assessed as late apoptotic cells at 5 uM measured after 48 hrs by Annexin V and dead cell kit analysis (reference value: 1.45%); type: functional
MCF7 [22] = test: Induction of apoptosis in human MCF7 cells assessed as necrotic cells at 5 uM measured after 48 hrs by Annexin V and dead cell kit analysis (reference value: 0.5%); type: functional
MCF7 [23] = test: Induction of apoptosis in human MCF7 cells assessed as viable cells at 7.5 uM measured after 48 hrs by Annexin V and dead cell kit analysis (reference value: 97.4%); type: functional; conditions: read-out: Activity
MCF7 [24] = test: Induction of apoptosis in human MCF7 cells assessed as early apoptotic cells at 7.5 uM measured after 48 hrs by Annexin V and dead cell kit analysis (reference value: 0.65%); type: functional
MCF7 [25] = test: Induction of apoptosis in human MCF7 cells assessed as late apoptotic cells at 7.5 uM measured after 48 hrs by Annexin V and dead cell kit analysis (reference value: 1.45%); type: functional
MCF7 [26] = test: Induction of apoptosis in human MCF7 cells assessed as necrotic cells at 7.5 uM measured after 48 hrs by Annexin V and dead cell kit analysis (reference value: 0.5%); type: functional
MCF7 [27] = test: Induction of reactive oxygen species generation in human MCF7 cells at 1 uM measured after 24 hrs by cellrox-green reagent based assay relative to control; type: functional
PANC-1 [28] = test: Induction of reactive oxygen species generation in human PANC-1 cells at 1 uM measured after 12 hrs by cellrox-green reagent based assay; type: functional, cell-based
PANC-1 [29] = test: Up regulation of p21 expression in human PANC-1 cells at 0.5 uM measured after 24 hrs by Western blot analysis; type: functional, cell-based
PANC-1 [30] = test: Down regulation of p21 expression in human PANC-1 cells at 5 uM measured after 24 hrs by Western blot analysis; type: functional, cell-based
MCF7 [31] = test: Down regulation of cyclin E1 expression in human MCF7 cells at 1 uM measured after 24 hrs by Western blot analysis; type: functional, cell-based
PANC-1 [32] = test: Effect on cdc2 expression in human PANC-1 cells at 0.5 to 5 uM measured after 24 hrs by Western blot analysis; type: functional, cell-based; conditions: dose 0.5-5 µM
[33] = Up regulation of HIF1 expression in human MCF7 cells at 1 to 5 uM measured after 24 hrs by Western blot analysis relative to control; type: functional; conditions: dose 1-5 µM
[34] = Up regulation of HIF1 expression in human PANC-1 cells at 0.5 to 5 uM measured after 24 hrs by Western blot analysis relative to control; type: functional; conditions: dose 0.5-5 µM
PANC-1 [35] = test: Induction of apoptosis in human PANC-1 cells assessed as increase in PARP cleavage at 0.5 to 5 uM measured after 24 hrs by Western blot analysis; type: functional, cell-based; conditions: dose 0.5-5 µM
PANC-1 [36] = test: Induction of autophagy in human PANC-1 cells assessed as increase in LC3 expression at 1 uM measured after 24 hrs by muse cell analyzer based fluorescence assay relative to control; type: functional

Question: Which results are given for `c1ccc(-c2cn(-c3ccc(-c4cc(-c5ccccn5)nc(-c5ccccn5)c4)cc3)nn2)nc1`?
Answer: IC50 (MCF7 [1]): 407 nM; IC50 (PANC-1 [2]): 114 nM; IC50 (U-251): 855 nM; IC50 (NHDF): > 25000 nM; Activity (PANC-1 [3]): 53.98%; Activity (PANC-1 [4]): 11.2%; Activity (PANC-1 [5]): 30.2%; Activity (PANC-1 [6]): 55.1%; Activity (PANC-1 [7]): 7.3%; Activity (PANC-1 [8]): 35.25%; Activity (PANC-1 [9]): 58.75%; Activity (PANC-1 [10]): 6.9%; Activity (PANC-1 [11]): 31%; Activity (MCF7 [12]): 12.1%; Activity (MCF7 [13]): 10%; Activity (MCF7 [14]): 22%; Activity (PANC-1 [15]): Dose-dependent effect; viability at 5 µM (PANC-1 [16]): 48.8%; Activity (PANC-1 [17]): 54.6%; Activity (PANC-1 [18]): 4.55%; viability at 5 µM (MCF7 [19]): 67.1%; Activity (MCF7 [20]): 10.6%; Activity (MCF7 [21]): 11.4%; Activity (MCF7 [22]): 10.9%; viability at 7.5 µM (MCF7 [23]): 50.2%; Activity (MCF7 [24]): 28.2%; Activity (MCF7 [25]): 17.45%; Activity (MCF7 [26]): 4.15%; Activity (MCF7 [27]): >150%; Activity (PANC-1 [28]): Active; Activity (PANC-1 [29]): Active; Activity (PANC-1 [30]): Active; Activity (MCF7 [31]): Active; Activity (PANC-1 [32]): inactive; fold change (FC) [33]: 45; fold change (FC) [34]: 30; Activity (PANC-1 [35]): Active; fold change (FC) (PANC-1 [36]): 2.2
